The target in data set [1] is (Homo sapiens, UniProt P43220). Put plainly: h-GLP-1 activity assay (cAMP HTRF, HEK293 cells with stable expression of human GLP-1). The settings on record: relative EC50, 10 nM human GLP-1 set as 100% response, 30 min at 37° C. Format: cell-based. The method in brief:
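HEK293 cells stably expressing human GLP-1 receptor construct exposed to compound 30 min at 37 °C in buffer with 0.1% BSA and 0.5 mM IBMX; cAMP measured by HTRF against a cAMP standard curve. 10 nM human GLP-1 set as 100%; relative EC50 from 4-parameter fit.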
(Time-resolved FRET reads energy transfer from a long-lived donor to a nearby acceptor.)

The next data set deals with T1, human OATP1B1 (Homo sapiens, UniProt Q9Y6L6).
T1 sequence (Q9Y6L6 1-691): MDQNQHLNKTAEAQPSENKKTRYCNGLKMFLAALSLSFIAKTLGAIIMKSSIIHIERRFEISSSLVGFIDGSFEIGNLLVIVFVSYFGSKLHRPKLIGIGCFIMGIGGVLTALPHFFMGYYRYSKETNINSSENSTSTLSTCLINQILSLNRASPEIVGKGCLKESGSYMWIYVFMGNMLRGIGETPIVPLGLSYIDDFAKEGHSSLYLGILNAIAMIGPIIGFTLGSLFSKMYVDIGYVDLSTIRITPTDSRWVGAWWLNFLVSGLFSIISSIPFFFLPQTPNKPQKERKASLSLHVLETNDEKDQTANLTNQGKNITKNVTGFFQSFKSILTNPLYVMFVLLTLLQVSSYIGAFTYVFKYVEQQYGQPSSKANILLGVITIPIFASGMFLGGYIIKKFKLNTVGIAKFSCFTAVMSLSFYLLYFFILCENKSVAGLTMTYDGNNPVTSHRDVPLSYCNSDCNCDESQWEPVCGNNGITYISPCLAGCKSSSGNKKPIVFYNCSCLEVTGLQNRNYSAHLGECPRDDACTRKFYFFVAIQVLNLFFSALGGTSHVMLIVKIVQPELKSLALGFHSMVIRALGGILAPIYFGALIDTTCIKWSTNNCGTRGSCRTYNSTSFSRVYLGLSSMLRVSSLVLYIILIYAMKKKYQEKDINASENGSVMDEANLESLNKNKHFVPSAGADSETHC
The experiment in a line: OATP1B1 inhibition assay (HEK293 cells over-expressing human OATP1B1, substrate estradiol 17-β-D-glucuronide). The class given is cell-based. The settings on record: 30 min pre-incubation, 10 min coincubation with estradiol 17-β-D-glucuronide. As for the experimental part: HEK293 cells over-expressing human OATP1B1 were used for determining the inhibitory effect of compounds of the application on OATP1B1-mediated transportation. Cells were seeded at a density of 400,000 cells per well in 24-well plates. When reaching confluence of 80˜90%, cells were washed with pre-warmed assay buffer and then pre-incubated with serially diluted test compounds or negative control (NC) or positive inhibitor (PC, Rifampicin) for 30 min, followed by coincubation with the same test compound and OATP1B1 substrate estradiol 17-β-D-glucuronide for 10 min. Cells were washed with pre-cooled buffer, and lysed by freeze-thaw cycles. After extraction by mixture of […] of methanol, the substrate concentration was determined by LC-MS/MS, and protein concentration was determined by BCA method. The substrate transport velocity U is calculated as U=Clysate/(P*T), where Clysate is substrate concentration in lysate, P is protein concentration in lysate, and T is incubation time. Relative transport activity Y is calculated as Y=UTA/UNC. The IC50 value of the tested compounds was calculated by fitting Y to compound concentration using a 4-parameter non-linear regression routine in Prism.

Data set [2] is described as follows: Pharmacokinetics after oral gavage in fasted SD rats. Format: in vivo. The following applies: rat, 5 mg/kg, plasma. As to the method:
Compounds of the present application were formulated in 10% DMSO/10%/Cremophor EL/15% PEG400/65% 100 mM Glycine-NaOH pH 10, and administered via oral gavage (P0) at the dosages of 5 or 10 mg per kilogram body weight in fasted SD rats. Plasma samples were collected at 0.25, 0.5, 1, 2, 4, 6, 8, and 24 hours post dosing. Compound concentration was determined by LC-MS and pharmacokinetics parameters were calculated by WinNonlin 8.2 using Non-Compartmental Analysis model.

pEC50, pIC50: −log10 of the molar value.

Chain of (Homo sapiens, UniProt P43220) (P43220 24-463): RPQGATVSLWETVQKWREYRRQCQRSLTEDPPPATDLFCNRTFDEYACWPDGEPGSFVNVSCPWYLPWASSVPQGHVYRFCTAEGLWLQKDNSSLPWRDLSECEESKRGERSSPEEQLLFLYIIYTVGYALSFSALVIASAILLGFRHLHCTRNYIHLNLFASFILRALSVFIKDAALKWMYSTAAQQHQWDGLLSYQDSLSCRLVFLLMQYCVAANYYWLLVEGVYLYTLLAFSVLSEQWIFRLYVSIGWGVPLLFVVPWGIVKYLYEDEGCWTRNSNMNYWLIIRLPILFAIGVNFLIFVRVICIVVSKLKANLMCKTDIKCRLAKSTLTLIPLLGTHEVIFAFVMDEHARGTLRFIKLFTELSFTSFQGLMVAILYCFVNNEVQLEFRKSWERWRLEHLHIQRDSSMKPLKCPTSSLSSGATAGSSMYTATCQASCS

Usually pEC50 stands for the negative decadic logarithm of the EC50, by convention in mol/L. Usually pIC50 stands for the negative decadic logarithm of the IC50, by convention in mol/L. For the compound `Cc1cc(-n2nc3c(c2-n2ccn(-c4ccc5c(cnn5C)c4F)c2=O)[C@H](C)N(C(=O)c2cc4cc([C@@H]5CCOC(C)(C)C5)ccn4c2C2(c4noc(=O)[nH]4)CC2)CC3)cc(C)c1F` (single isomer, unassigned) [Compound 10], the pEC50 in data set [1] was more than 7.70. Also, the pIC50 on human OATP1B1 was less than 6.00.
For orientation: AUC means the area under the concentration-time curve, a measure of exposure. Low readings indicate low exposure, high ones high exposure. By Cmax is commonly meant the highest concentration seen after dosing. What is called bioavailability is the share of a dose that reaches the circulation, judged against a reference dose that is usually intravenous. The low end stands for little systemic uptake, the high end for much systemic uptake. In data set [2], `Cc1cc(-n2nc3c(c2-n2ccn(-c4ccc5c(cnn5C)c4F)c2=O)[C@H](C)N(C(=O)c2cn4cc([C@@H]5CCOC(C)(C)C5)ccc4c2C2(c4noc(=O)[nH]4)CC2)CC3)cc(C)c1F` (single isomer, unassigned) [Compound 19] returned an AUC of 3000 ng·h/mL, a Cmax of 572 ng/mL and a bioavailability of 26%. This compound also gave a pEC50 in data set [1] of more than 7.70. Besides, the pIC50 on human OATP1B1 was less than 6.00.
Regarding `C[C@H]1c2c(nn(-c3ccc(F)c(C4CC4)c3)c2-n2ccn(-c3ccc4c(cnn4C)c3F)c2=O)CCN1C(=O)c1cc2cc([C@@H]3CCOC(C)(C)C3)ccn2c1C1(c2noc(=O)[nH]2)CC1` (single isomer, unassigned) [Compound 73], in data set [2], the AUC came to 10200 ng·h/mL, the Cmax turned out to be 1700 ng/mL and the bioavailability was 90%. In data set [1], the pEC50 is more than 7.70. In addition, the pIC50 on human OATP1B1 is less than 6.00.
In data set [2], `C[C@H]1c2c(nn(-c3ccc(F)c(C4CC4)c3)c2-n2ccn(-c3ccc4c(cnn4C)c3F)c2=O)CCN1C(=O)c1cn2cc([C@@H]3CCOC(C)(C)C3)ccc2c1C1(c2noc(=O)[nH]2)CC1` (single isomer, unassigned) [Compound 76] yielded an AUC of 5320 ng·h/mL, a Cmax of 962 ng/mL and a bioavailability of 30%. The compound further had a pEC50 in data set [1] of more than 7.70. For the same compound, at human OATP1B1, the pIC50 is less than 6.00.
In data set [2], `C[C@H]1c2c(nn(-c3ccc(F)c(C4CC4)c3)c2-n2ccn(-c3ccc4c(cnn4C)c3F)c2=O)CCN1C(=O)c1cn2nc([C@@H]3CCOC(C)(C)C3)ccc2c1C1(c2noc(=O)[nH]2)CC1` (single isomer, unassigned) [Compound 90] came in with an AUC of 3340 ng·h/mL, a Cmax of 1370 ng/mL and a bioavailability of 59%. The compound further gave a pEC50 in data set [1] of more than 7.70. The pIC50 at human OATP1B1 was less than 6.00.
In the case of `C[C@H]1c2c(nn(-c3ccc(F)c(C4CC4)c3)c2-n2ccn(-c3ccc4c(cnn4C)c3F)c2=O)CCN1C(=O)c1cn2cc([C@H]3CCOC(C)(C)C3)cc(F)c2c1C1(c2noc(=O)[nH]2)CC1` (single isomer, unassigned) [Compound 91], in data set [2], the AUC was determined as 2660 ng·h/mL, the Cmax was 738 ng/mL and the bioavailability was 22%. In data set [1], this compound had a pEC50 of more than 7.70. Moreover, the pIC50 on human OATP1B1 was less than 6.00.
In turn, `Cc1cc(-n2nc3c(c2-n2ccn(-c4ccc5c(cnn5C)c4F)c2=O)[C@H](C)N(C(=O)c2cc4cc(C5CCOCC5)ccc4n2-c2cccc(C(=O)O)c2)CC3)cc(C)c1F` [Compound 56, (S)-3-(2-(3-(3-(4-fluoro-1-methyl-1H-indazol-5-yl)-2-oxo-2,3-dihydro-1H-imidazol-1-yl)-2-(4-fluoro-3,5-dimethylphenyl)-4-methyl-4,5,6,7-tetrahydro-2H-pyrazolo[4,3-c]pyridine-5-carbonyl)-5-(tetrahydro-2H-pyran-4-yl)-1H-indol-1-yl)benzoic acid] showed a pEC50 in data set [1] of more than 7.70.
The compound `COCc1ccc(-n2ccn(-c3c4c(nn3-c3cc(C)c(F)c(C)c3)CCN(C(=O)c3cc5cc(C6CCOCC6)ccc5n3-c3ccccc3C(=O)O)[C@H]4C)c2=O)cc1` [Compound 57, (S)-2-(2-(2-(4-fluoro-3,5-dimethylphenyl)-3-(3-(4-(methoxymethyl)phenyl)-2-oxo-2,3-dihydro-1H-imidazol-1-yl)-4-methyl-4,5,6,7-tetrahydro-2H-pyrazolo[4,3-c]pyridine-5-carbonyl)-5-(tetrahydro-2H-pyran-4-yl)-1H-indol-1-yl)benzoic acid] gave a pEC50 in data set [1] of less than 7.00.
In data set [1], `Cc1cc(-c2ccc3c(c2)cc(C(=O)N2CCn4nc(-c5ccc(F)cc5)c(-n5ccn(-c6ccc7c(cnn7C)c6F)c5=O)c4C2)n3Cc2noc(=O)[nH]2)ccn1` [Compound 58, 3-((2-(3-(3-(4-fluoro-1-methyl-1H-indazol-5-yl)-2-oxo-2,3-dihydro-1H-imidazol-1-yl)-2-(4-fluorophenyl)-4,5,6,7-tetrahydropyrazolo[1,5-a]pyrazine-5-carbonyl)-5-(2-methylpyridin-4-yl)-1H-indol-1-yl)methyl)-1,2,4-oxadiazol-5(4H)-one] had a pEC50 of more than 7.70.
For `Cc1cc(-n2nc3c(c2-n2ccn(-c4ccc5c(cnn5C)c4F)c2=O)CN(C(=O)c2cc4cc(C5CCOCC5)ccc4n2-c2cccc4[nH]nnc24)CC3)cc(C)c1F` [Compound 59, 1-(5-(1-(1H-benzo[d][1,2,3]triazol-4-yl)-5-(tetrahydro-2H-pyran-4-yl)-1H-indole-2-carbonyl)-2-(4-fluoro-3,5-dimethylphenyl)-4,5,6,7-tetrahydro-2H-pyrazolo[4,3-c]pyridin-3-yl)-3-(4-fluoro-1-methyl-1H-indazol-5-yl)-1,3-dihydro-2H-imidazol-2-one], the pEC50 in data set [1] was less than 7.00.

Source of the values: patent publication US12037339B2, “Substituted imidazoles as GLP-1 receptor agonists” (Eccogene Inc., priority 2020, dated 2024).
